Measured values reported in patent US20080248486A1, “Type Pept1 Protein Assay” (Iongate Biosciences GmbH, priority 2004, published 2008).

Experiments:
[1] = system: peptide transporter; conditions: Meredith et al. 1998; cited from earlier work
[2] = Solubility of glibenclamide; format: physicochemical
[3] = target: T1, PepT1 (Homo sapiens, UniProt P46059); parameters: host or cells: oocytes; conditions: oocytes; cited from earlier work
T1 sequence (P46059 1-708): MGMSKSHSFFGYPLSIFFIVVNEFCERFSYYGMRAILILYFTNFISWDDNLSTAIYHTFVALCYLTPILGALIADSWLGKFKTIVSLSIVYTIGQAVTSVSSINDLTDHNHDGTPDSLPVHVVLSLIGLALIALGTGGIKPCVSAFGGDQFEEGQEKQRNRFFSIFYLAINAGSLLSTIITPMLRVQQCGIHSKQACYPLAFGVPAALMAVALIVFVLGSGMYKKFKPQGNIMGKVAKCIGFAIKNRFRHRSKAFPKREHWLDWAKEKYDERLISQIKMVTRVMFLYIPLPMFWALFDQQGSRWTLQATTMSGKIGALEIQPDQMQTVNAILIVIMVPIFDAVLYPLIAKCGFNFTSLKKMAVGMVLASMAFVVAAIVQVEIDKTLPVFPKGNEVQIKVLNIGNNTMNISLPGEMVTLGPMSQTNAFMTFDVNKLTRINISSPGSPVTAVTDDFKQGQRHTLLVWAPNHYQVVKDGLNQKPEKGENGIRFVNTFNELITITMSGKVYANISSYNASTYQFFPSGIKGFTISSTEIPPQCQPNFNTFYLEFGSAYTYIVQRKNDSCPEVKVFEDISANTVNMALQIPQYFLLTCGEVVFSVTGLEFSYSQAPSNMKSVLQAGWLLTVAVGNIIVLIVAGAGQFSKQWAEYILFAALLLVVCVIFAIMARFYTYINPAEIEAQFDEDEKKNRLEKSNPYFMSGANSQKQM

[4] = target: T1, PepT1; assay: Activity measurement with glibenclamide on protein-loaded sensor chip (SurfE2R system), current amplitude on change from non-activating to activating solution; format: biochemical; parameters: expressed in transfected cells; host or cells: CHO cells (plasma membrane preparation); conditions: 100 μM glibenclamide in both activating and non-activating solution; CHO plasma membrane preparation on sensor chip; FIG. 1
Experimental: The measurements were carried out as above, although both solutions contained activating and non-activating solution and additionally 100 μM glibenclamide.

Row | Solubility [2] | Effect on current amplitude (PepT1 transport current I(t)) [4] | Structure (SMILES) | Affinity to the transporter [1] | IC50 [3] [µM]
1 | – | – | NCc1ccc(C(=O)O)cc1 [4-aminomethyl benzoic acid] | only a slight affinity | –
2 | poor solubility | inhibition of the current amplitude | COc1ccc(Cl)cc1C(=O)NCCc1ccc(S(=O)(=O)NC(=O)NC2CCCCC2)cc1 [glibenclamide] | – | ~100
